Reference: US20080181866A1, “Amido Anti-viral Compounds” (Genelabs Technologies, Inc., priority 2006, published 2008)

system: HCV replication; assay: HCV replicon assay (luciferase) in ET (Huh-lucubineo-ET) cell line; assay type: cell-based; details: Hepatitis C virus, tested at 5 μM; ET replicon cells; luciferase activity measured 48-72 hours later; relative to no compound control
Method: A cell line, ET (Huh-lucubineo-ET) was used for screening of compounds of the present invention for inhibiting HCV replication. The ET cell line was stably transfected with RNA transcripts harboring a I389luc-ubi-neo/NS3-3′/ET; replicon with firefly luciferase-ubiquitin-neomycin phosphotransferase fusion protein and EMCV-IRES driven NS3-5B polyprotein containing the cell culture adaptive mutations (E1202G; T12801; K1846T) (Krieger at al, 2001 and unpublished). The ET cells were grown in DMEM (Dulbeco's Modified Eagle's Medium), supplemented with 10% fetal calf serum, 2 mM Glutamine, Penicillin (100 IU/mL)/Streptomycin (100 μg/mL), 1× nonessential amino acids, and 250 μg/mL G418 (“Geneticin”). They were all available through Life Technologies (Bethesda, Md.). The cells were plated at 0.5-1.0×10^4 cells/well in the 96 well plates and incubated for 24 hrs before adding testing compounds. Then the compounds were added to the cells to achieve a final concentration of 0.1 nM to 50 μM and a final DMSO concentration of 0.5%. Luciferase activity were measured 48-72 hours later by adding a lysis buffer and the substrate (Catalog number Glo-lysis buffer E2661 and Bright-Glo luciferase system E2620 Promega, Madison, Wis.). Cells should not be too confluent during the assay. Percent inhibition of replication was plotted relative to no compound control. Under the same condition, cytotoxicity of the compounds was determined using cell proliferation reagent, WST-1 (Roche, Germany). The compounds showing antiviral activities, but no significant cytotoxicities were chosen to determine EC50 and TC50. For these determinations, a 10 point 2-fold serial dilution for each compound was used, which spans a concentration range of 1000 fold. EC50 and similarly TC50 values were calculated by fitting % inhibition at each concentration to the following equation:
% inhibition=100%/[(IC50/[I])^b+1]
where b is Hill's coefficient.
In some preferred embodiments compounds of Formula I will have a % inhibition of at least 20% when tested at 5 μM. In other embodiments the compounds of Formula I will have a % inhibition of at least 50% when tested at 5 μM.

| SMILES | inhibition at 5 µM |
| --- | --- |
| COC(=O)c1ccc(C2SC[C@@H](C(=O)Nc3nc(-c4ccc(C(=O)NC5CC5)cc4)cs3)N2C(=O)OCc2ccccc2)cc1 (mixture of isomers) [Compound 7051, (R)-4-[4-(4-Cyclopropylcarbamoyl-phenyl)-thiazol-2-ylcarbamoyl]-2-(4-methoxycarbonyl-phenyl)-thiazolidine-3-carboxylic acid benzyl ester] | 99.4% |
| Cn1ccnc1C1SC[C@@H](C(=O)Nc2nc(-c3ccc(C(=O)NC4CC4)cc3)cs2)N1C(=O)OCc1ccccc1 (mixture of isomers) [Compound 7053, (R)-4-[4-(4-Cyclopropylcarbamoyl-phenyl)-thiazol-2-ylcarbamoyl]-2-(1-methyl-1H-imidazol-2-yl)-thiazolidine-3-carboxylic acid benzyl ester] | 99.6% |
| O=C(NC1CC1)c1ccc(-c2csc(NC(=O)[C@@H]3CSC(c4ncco4)N3C(=O)OCc3ccccc3)n2)cc1 (mixture of isomers) [Compound 7056, (R)-4-[4-(4-Cyclopropylcarbamoyl-phenyl)-thiazol-2-ylcarbamoyl]-2-oxazol-2-yl-thiazolidine-3-carboxylic acid benzyl ester] | 99.9% |
| COC(=O)c1cccc(C2SC[C@@H](C(=O)Nc3nc(-c4ccc(C(=O)NC5CC5)cc4)cs3)N2C(=O)OCc2ccccc2)c1 (mixture of isomers) [Compound 7057, (R)-4-[4-(4-Cyclopropylcarbamoyl-phenyl)-thiazol-2-ylcarbamoyl]-2-(3-methoxycarbonyl-phenyl)-thiazolidine-3-carboxylic acid benzyl ester] | 100% |
| O=C(O)CCC1SC[C@@H](C(=O)Nc2nc(-c3ccc(C(=O)NC4CC4)cc3)cs2)N1C(=O)OCc1ccccc1 (mixture of isomers) [Compound 7065, 2-(2-Carboxy-ethyl)-4-[4-(4-cyclopropylcarbamoyl-phenyl)-thiazol-2-ylcarbamoyl]-thiazolidine-3-carboxylic acid benzyl ester] | 92% |
| O=C(NC1CC1)c1ccc(-c2csc(NC(=O)[C@@H]3CSC(c4cccc(CN5CCOCC5)c4)N3C(=O)OCc3ccccc3)n2)cc1 (mixture of isomers) [Compound 7080, 4-[4-(4-Cyclopropylcarbamoyl-phenyl)-thiazol-2-ylcarbamoyl]-2-(3-morpholin-4-ylmethyl-phenyl)-thiazolidine-3-carboxylic acid benzyl ester] | 100% |
| CC(C)(C)OC(=O)N1CCCC(C2SC[C@@H](C(=O)Nc3nc(-c4ccc(C(=O)NC5CC5)cc4)cs3)N2C(=O)OCc2ccccc2)C1 (mixture of isomers) [Compound 7098, 3-{3-Benzyloxycarbonyl-4-[4-(4-cyclopropylcarbamoyl-phenyl)-thiazol-2-ylcarbamoyl]-thiazolidin-2-yl}-piperidine-1-carboxylic acid tert-butyl ester] | 99.9% |
| CC(=O)c1ccc(C2SC[C@@H](C(=O)Nc3nc(-c4ccc(C(=O)NC5CC5)cc4)cs3)N2C(=O)OCc2ccccc2)cc1 (mixture of isomers) [Compound 7109, 2-(4-Acetyl-phenyl)-4-[4-(4-cyclopropylcarbamoyl-phenyl)-thiazol-2-ylcarbamoyl]-thiazolidine-3-carboxylic acid benzyl ester] | 100% |
| CN(C)C(=O)CCCCC1SC[C@@H](C(=O)Nc2nc(-c3ccc(C(=O)NC4CC4)cc3)cs2)N1C(=O)OCc1ccccc1 (mixture of isomers) [Compound 7125, 4-[4-(4-Cyclopropylcarbamoyl-phenyl)-thiazol-2-ylcarbamoyl]-2-(4-dimethylcarbamoyl-butyl)-thiazolidine-3-carboxylic acid benzyl ester] | 100% |
| CC(=O)N1CCCC(C2SC[C@@H](C(=O)Nc3nc(-c4ccc(C(=O)NC5CC5)cc4)cs3)N2C(=O)OCc2ccccc2)C1 (mixture of isomers) [Compound 7133, 2-(1-Acetyl-piperidin-3-yl)-4-[4-(4-cyclopropylcarbamoyl-phenyl)-thiazol-2-ylcarbamoyl]-thiazolidine-3-carboxylic acid benzyl ester] | 100% |
| CC(C)(C)OC(=O)N1C(c2cccnc2)SC[C@H]1C(=O)Nc1nc(-c2ccc(C(=O)NC3CC3)cc2)cs1 (single isomer, unassigned) [Compound 7032, 4-[4-(4-Cyclopropylcarbamoyl-phenyl)-thiazol-2-ylcarbamoyl]-2-pyridin-3-yl-thiazolidine-3-carboxylic acid tert-butyl ester] | 99.2% |
| Cn1ccnc1C1SC[C@@H](C(=O)Nc2nc(-c3ccc(C(=O)NC4CC4)cc3)cs2)N1C(=O)OCc1ccccc1 (single isomer, unassigned) [Compound 7054, 4-[4-(4-Cyclopropylcarbamoyl-phenyl)-thiazol-2-ylcarbamoyl]-2-(1-methyl-1H-imidazol-2-yl)-thiazolidine-3-carboxylic acid benzyl ester] | 94.1% |
| O=C(NC1CC1)c1ccc(NC(=O)[C@@H]2CSC(c3ccncc3)N2C(=O)OCc2ccccc2)cc1 (stereo in doubt) [Compound 7066, 4-(4-Cyclopropylcarbamoyl-phenylcarbamoyl)-2-pyridin-4-yl-thiazolidine-3-carboxylic acid benzyl ester] | 6.9% |
| O=C(Nc1ccc(CNS(=O)(=O)c2ccc(-c3ccccc3)cc2)cc1)[C@@H]1CSC(c2ccncc2)N1C(=O)OCc1ccccc1 (stereo in doubt) [Compound 7073, 4-{4-[(Biphenyl-4-sulfonylamino)-methyl]-phenylcarbamoyl}-2-pyridin-4-yl-thiazolidine-3-carboxylic acid benzyl ester] | 65.3% |
| O=C(NCc1ccc(NC(=O)[C@@H]2CSC(c3ccncc3)N2C(=O)OCc2ccccc2)cc1)c1ccccc1 (stereo in doubt) [Compound 7077, 4-[4-(Benzoylamino-methyl)-phenylcarbamoyl]-2-pyridin-4-yl-thiazolidine-3-carboxylic acid benzyl ester] | 2.1% |
| N#Cc1cccc(C2OC[C@@H](C(=O)Nc3nc(-c4ccc(C(=O)NC5CC5)cc4)cs3)N2C(=O)OCc2ccccc2)c1 (stereo in doubt) [Compound 7081, 2-(3-Cyano-phenyl)-4-[4-(4-cyclopropylcarbamoyl-phenyl)-thiazol-2-ylcarbamoyl]-oxazolidine-3-carboxylic acid benzyl ester] | 100% |
| O=C(O)CCCCC1SC[C@@H](C(=O)Nc2nc(-c3ccc(C(=O)NC4CC4)cc3)cs2)N1C(=O)OCc1ccccc1 (stereo in doubt) [Compound 7088, 2-(4-Carboxy-butyl)-4-[4-(4-cyclopropylcarbamoyl-phenyl)-thiazol-2-ylcarbamoyl]-thiazolidine-3-carboxylic acid benzyl ester] | 99.8% |
| CNC(=O)CCC1SC[C@@H](C(=O)Nc2nc(-c3ccc(C(=O)NC4CC4)cc3)cs2)N1C(=O)OCc1ccccc1 (stereo in doubt) [Compound 7091, 4-[4-(4-Cyclopropylcarbamoyl-phenyl)-thiazol-2-ylcarbamoyl]-2-(2-methylcarbamoyl-ethyl)-thiazolidine-3-carboxylic acid benzyl ester] | 100% |

same assay, conditions: tested at 5 μM; ET replicon cells; luciferase activity measured 48-72 hours later; relative to no compound control; 5 µM

| SMILES | % inhibition at 5 μM |
| --- | --- |
| CC(C)(C)OC(=O)N1C(c2cccnc2)SC[C@H]1C(=O)Nc1nc(-c2ccc(C(=O)NC3CC3)cc2)cs1 (single isomer, unassigned) [Compound 7055, 4-[4-(4-Cyclopropylcarbamoyl-phenyl)-thiazol-2-ylcarbamoyl]-2-pyridin-3-yl-thiazolidine-3-carboxylic acid tert-butyl ester] | 99.1% |
